Reference: ChEMBL document CHEMBL1201862, “PubChem BioAssay data set” (2004)
The source made the active and inactive calls.

Experiments:
[1] = target: T1, Ubiquitin-conjugating enzyme E2 N (Homo sapiens, UniProt P61088); format: functional
T1 sequence (P61088 whole entry): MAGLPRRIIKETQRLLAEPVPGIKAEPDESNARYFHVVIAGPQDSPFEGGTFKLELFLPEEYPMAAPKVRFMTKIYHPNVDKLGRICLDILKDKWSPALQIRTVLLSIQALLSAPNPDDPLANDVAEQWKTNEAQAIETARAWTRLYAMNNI

[2] = target: T1, Ubiquitin-conjugating enzyme E2 N; format: functional; remark: listed apart in the source
Bcl-2-related protein A1 = target: T2, Bcl-2-related protein A1 (Mus musculus, UniProt Q07440); format: functional;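 also: confirmatory dose–response counterscreen on Bfl-1, used to check hits from a UBC13 polyubiquitin inhibitor campaign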
T2 sequence (Q07440 whole entry): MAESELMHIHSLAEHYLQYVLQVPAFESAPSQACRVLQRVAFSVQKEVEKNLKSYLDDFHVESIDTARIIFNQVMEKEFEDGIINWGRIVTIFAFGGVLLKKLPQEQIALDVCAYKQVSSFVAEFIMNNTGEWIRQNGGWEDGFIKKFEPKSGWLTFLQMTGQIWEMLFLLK

Protein RecA = target: T3, Protein RecA (Mycobacterium tuberculosis, UniProt P9WHJ3); assay: Fluorescence Cell-Free Homogeneous Dose Retest to Identify Inhibitors of RecA-Intein Splicing Activity. [Related pubchem assays (depositor defined):AID2097, AID2223, AID489010, AID492950]; format: functional
T3 sequence (P9WHJ3 whole entry): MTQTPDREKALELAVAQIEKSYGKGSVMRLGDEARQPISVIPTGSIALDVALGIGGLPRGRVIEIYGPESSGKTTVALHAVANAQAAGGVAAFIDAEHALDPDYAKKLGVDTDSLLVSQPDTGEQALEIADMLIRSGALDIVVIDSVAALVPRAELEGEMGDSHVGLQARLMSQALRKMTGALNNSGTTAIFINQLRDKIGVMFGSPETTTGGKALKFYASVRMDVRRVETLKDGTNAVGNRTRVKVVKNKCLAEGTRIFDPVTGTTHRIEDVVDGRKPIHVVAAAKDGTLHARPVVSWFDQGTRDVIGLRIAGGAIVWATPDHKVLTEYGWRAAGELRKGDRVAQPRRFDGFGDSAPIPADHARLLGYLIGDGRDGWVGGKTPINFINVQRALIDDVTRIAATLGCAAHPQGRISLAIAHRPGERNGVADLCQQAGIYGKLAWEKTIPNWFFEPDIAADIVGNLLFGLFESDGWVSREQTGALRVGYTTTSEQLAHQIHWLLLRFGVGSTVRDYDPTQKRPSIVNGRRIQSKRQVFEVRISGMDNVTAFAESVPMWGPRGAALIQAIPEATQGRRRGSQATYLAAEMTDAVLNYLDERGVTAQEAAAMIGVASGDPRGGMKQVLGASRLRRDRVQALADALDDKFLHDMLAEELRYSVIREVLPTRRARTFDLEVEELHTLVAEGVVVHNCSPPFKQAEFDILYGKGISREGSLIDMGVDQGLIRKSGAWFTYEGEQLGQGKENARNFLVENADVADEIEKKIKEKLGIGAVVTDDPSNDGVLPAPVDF

[3] = fluconazole-exposed Candida albicans growth modulators – fluorescence, retest, confirmation (AID 2467); format: functional, cell-based
[4] = NIH-3T3 fibroblast cytotoxicity, dose response, cytotoxicity control, cell-based, fluorescence, Alamar Blue, secondary assay (AID 2327); format: functional;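 also: NIH-3T3 mouse fibroblasts cultured with fluconazole at 8 µg/mL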
[5] = target: T4, Replicative DNA helicase DnaB (Mycobacterium tuberculosis, UniProt P9WMR3); assay: DnaB intein splicing inhibitors, dose response, biochemical, cell-free fluorescence (AID 449749); format: functional
T4 sequence (P9WMR3 whole entry): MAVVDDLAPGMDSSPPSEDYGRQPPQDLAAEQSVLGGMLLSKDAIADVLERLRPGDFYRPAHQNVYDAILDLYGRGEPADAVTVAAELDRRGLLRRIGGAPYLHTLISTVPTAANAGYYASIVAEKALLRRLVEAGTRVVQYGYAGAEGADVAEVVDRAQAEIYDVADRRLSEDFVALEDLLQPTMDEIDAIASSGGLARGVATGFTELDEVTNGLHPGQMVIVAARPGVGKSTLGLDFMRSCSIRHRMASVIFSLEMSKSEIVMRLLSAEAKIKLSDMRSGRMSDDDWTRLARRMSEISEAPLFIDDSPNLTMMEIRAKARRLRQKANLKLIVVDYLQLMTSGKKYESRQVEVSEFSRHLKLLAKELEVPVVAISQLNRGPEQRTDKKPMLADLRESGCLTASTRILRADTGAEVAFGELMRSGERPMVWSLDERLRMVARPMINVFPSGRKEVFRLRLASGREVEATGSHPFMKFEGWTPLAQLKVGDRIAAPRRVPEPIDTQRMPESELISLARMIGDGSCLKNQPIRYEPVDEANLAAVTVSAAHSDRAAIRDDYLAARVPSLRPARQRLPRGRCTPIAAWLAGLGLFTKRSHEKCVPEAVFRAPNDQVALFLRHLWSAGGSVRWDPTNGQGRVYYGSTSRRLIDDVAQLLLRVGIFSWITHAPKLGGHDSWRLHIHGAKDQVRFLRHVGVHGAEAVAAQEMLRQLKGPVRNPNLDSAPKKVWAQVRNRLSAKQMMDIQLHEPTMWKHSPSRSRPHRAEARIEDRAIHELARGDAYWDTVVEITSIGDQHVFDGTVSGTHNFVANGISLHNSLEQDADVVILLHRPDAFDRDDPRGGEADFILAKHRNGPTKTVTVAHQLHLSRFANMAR

SUMO-activating enzyme = SUMO-activating enzyme (Homo sapiens, UniProt Q9UBT2); assay: blockers of UBC9-mediated SUMO conjugation – biochemical, AlphaScreen, SUMOylation inhibitor project, confirmation (AID 2018); format: functional
[6] = target: T5, Apoptotic protease-activating factor 1 (Homo sapiens, UniProt O14727); format: functional
T5 sequence (O14727 whole entry): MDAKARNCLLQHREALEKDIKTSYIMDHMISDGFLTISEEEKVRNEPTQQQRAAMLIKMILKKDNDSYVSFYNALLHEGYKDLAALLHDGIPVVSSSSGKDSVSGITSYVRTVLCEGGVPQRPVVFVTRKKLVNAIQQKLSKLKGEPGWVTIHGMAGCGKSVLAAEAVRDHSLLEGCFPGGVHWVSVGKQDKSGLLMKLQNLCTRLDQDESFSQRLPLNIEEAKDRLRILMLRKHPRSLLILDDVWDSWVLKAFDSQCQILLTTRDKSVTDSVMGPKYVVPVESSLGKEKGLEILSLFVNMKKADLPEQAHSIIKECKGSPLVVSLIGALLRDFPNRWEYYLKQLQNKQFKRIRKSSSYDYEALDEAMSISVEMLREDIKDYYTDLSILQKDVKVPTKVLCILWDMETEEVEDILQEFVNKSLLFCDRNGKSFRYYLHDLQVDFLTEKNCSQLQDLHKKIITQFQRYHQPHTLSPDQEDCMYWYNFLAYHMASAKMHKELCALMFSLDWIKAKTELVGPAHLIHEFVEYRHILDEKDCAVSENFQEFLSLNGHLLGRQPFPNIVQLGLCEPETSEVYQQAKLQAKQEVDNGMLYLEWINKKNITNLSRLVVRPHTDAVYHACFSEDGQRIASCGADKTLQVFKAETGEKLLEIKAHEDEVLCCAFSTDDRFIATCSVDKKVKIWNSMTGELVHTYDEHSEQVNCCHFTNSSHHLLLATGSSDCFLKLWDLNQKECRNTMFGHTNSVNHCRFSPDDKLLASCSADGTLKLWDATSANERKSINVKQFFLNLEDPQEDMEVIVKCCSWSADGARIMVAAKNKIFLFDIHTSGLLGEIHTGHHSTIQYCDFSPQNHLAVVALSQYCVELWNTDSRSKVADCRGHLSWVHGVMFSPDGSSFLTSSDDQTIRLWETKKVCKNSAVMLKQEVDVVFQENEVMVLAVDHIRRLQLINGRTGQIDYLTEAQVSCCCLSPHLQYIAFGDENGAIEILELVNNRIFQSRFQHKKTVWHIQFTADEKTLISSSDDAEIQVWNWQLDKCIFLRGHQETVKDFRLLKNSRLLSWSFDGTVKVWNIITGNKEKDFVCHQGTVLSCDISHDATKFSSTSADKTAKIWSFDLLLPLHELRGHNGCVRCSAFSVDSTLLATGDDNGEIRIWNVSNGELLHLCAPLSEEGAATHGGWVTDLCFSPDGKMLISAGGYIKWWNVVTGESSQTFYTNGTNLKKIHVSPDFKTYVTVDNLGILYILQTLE

[7] = target: G-protein coupled receptor 55 (Homo sapiens, UniProt Q9Y2T6); assay: blockers of GPR55 signalling, imaged – imaging, image-based, counter-screen for GPR35 antagonist project, SAR follow-up (AID 2397); format: functional
[8] = target: T6, Mannose-6-phosphate isomerase (Homo sapiens, UniProt P34949); assay: MPI enzyme activity inhibition – biochemical, fluorescence intensity, coupled assay, primary screen (AID 1209)
T6 sequence (P34949 whole entry): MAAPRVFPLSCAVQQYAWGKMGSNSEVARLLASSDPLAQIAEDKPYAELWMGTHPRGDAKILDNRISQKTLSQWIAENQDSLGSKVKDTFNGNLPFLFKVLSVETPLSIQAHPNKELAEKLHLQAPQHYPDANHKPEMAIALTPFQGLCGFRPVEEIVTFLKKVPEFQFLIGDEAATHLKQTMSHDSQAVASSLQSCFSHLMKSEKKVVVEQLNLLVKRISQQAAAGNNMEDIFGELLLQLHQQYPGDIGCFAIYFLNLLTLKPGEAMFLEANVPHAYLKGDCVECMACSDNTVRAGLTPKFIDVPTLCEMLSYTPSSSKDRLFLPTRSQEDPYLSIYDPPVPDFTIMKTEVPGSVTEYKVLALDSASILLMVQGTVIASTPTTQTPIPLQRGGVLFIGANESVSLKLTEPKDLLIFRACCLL

[9] = target: T6, Mannose-6-phosphate isomerase; assay: phosphomannose isomerase inhibition – biochemical, fluorescence intensity, confirmation (AID 1535)
Phosphomannomutase 2 = Phosphomannomutase 2 (Homo sapiens, UniProt O15305); assay: Counter screen SAR assay for PMM2 inhibitors via a fluorescence intensity assay. [Related pubchem assays (depositor defined):AID1545, AID1574]
[10] = luciferase reporter signal suppression in cells – H4 neuroglioma cells, luminescence, dose response (AID 1990); format: functional, cell-based
Vero = assay: mammalian cell viability reduction – secondary assay, cytotoxicity control for West Nile virus antiviral project, dose response (AID 1650); format: functional; conditions: Chlorocebus sabaeus
[11] = alpha-synuclein stem-loop luciferase translation blockers – H4 neuroglioma cells, luminescence, confirmation (AID 1988); format: functional, cell-based
[12] = Luminescence Cell-Based Dose Response HTS to Identify Inhibitors of 5'UTR Stem-Loop Driven Prion Protein mRNA Translation in H4 Neuroglioblastoma Cells. [Related pubchem assays: 1827 (Project Summary), 1813 (Primary HTS)]; format: functional

Chain of SUMO-activating enzyme (Q9UBE0 whole entry): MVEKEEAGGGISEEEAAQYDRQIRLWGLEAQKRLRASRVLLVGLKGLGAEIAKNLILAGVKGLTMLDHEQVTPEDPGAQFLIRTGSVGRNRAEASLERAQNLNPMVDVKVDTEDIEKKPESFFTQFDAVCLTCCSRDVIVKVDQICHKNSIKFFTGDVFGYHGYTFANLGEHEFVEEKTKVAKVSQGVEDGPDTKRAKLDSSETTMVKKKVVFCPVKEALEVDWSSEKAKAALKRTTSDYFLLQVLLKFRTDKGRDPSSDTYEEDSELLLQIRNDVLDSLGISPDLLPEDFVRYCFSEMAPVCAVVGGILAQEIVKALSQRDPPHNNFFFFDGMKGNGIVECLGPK
Chain of SUMO-activating enzyme (Q9UBT2 whole entry): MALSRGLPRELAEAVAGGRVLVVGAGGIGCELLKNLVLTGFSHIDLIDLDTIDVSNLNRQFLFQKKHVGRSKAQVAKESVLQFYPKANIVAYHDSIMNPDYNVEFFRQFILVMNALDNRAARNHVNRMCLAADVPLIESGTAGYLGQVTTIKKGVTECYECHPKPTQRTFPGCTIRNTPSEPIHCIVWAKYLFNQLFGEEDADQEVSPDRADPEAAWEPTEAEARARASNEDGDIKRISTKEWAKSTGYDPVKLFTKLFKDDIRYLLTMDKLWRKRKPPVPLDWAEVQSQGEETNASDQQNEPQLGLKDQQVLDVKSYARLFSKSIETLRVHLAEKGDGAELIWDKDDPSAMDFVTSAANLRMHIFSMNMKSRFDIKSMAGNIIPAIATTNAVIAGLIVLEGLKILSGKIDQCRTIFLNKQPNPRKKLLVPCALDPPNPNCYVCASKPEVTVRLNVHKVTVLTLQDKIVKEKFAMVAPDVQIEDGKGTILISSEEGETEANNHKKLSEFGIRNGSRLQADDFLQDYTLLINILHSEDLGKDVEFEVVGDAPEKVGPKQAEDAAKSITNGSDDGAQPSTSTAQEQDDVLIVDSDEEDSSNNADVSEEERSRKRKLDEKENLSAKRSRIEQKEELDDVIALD
Chain of Phosphomannomutase 2 (O15305 whole entry): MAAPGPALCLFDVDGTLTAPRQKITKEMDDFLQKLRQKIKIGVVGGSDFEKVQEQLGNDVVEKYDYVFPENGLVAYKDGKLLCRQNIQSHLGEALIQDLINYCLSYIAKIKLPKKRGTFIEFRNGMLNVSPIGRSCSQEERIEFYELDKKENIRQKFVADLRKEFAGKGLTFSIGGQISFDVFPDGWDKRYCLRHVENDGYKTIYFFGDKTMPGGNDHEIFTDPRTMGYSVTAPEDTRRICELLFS
Chain of G-protein coupled receptor 55 (Q9Y2T6 whole entry): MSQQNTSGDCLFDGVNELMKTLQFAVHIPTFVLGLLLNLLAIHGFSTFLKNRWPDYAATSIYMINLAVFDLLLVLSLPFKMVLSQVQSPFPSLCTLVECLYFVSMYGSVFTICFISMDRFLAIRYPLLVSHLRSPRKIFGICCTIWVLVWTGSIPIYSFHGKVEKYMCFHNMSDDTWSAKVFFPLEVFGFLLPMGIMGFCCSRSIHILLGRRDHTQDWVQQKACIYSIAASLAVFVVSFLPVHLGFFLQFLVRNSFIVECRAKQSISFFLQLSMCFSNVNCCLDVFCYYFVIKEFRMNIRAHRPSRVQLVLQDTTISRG

With `CCOc1ccc(N(C(=O)c2snc(C(N)=O)c2N)C(CC)C(=O)NC2CCCC2)cc1` (stereo unspecified) the IC50 [1] was 12.3 µM (active), the IC50 [2] was 10.1 µM (active) and the IC50 (Bcl-2-related protein A1) was > 20 µM (inactive).

In the case of `O=[N+]([O-])c1cccc(/C=N/c2cccc3ccccc23)c1O`, the EC50 (Protein RecA) was 41.9 µM (active), the EC50 [3] was 3.78 µM (active) and the EC50 [4] was 107 µM (active). For the same molecule, the AC50 [5] was 54.6 µM (active), the IC50 (SUMO-activating enzyme) was 20.4 µM (active) and the IC50 [6] was 56.6 µM (active).

In the case of `CCc1ccc(NC(=O)CSc2nc3ccsc3c(=O)n2Cc2ccc(OC)cc2)cc1`, the IC50 [7] was > 32 µM (inactive).

For `Cc1ccc(NC2Nc3cc(C)nn3S2)c(C)c1` (stereo unspecified), the IC50 [8] was 11.2 µM (active), the IC50 [9] was > 50 µM (inactive) and the IC50 (Phosphomannomutase 2) was > 100 µM (inactive).

With `COc1ccc(NC(=O)C(=O)N/N=C\c2ccc(CNC(=O)C(=O)Nc3ccc(C)c(C)c3)o2)c(OC)c1` the EC50 [10] was 6.59 µM (active), the CC50 (Vero) was 15.1 µM (active) and the EC50 [11] was 5.4 µM (active). For the same molecule, the EC50 [12] was 9.34 µM (active) and the IC50 (SUMO-activating enzyme) was 30.4 µM (active).

With `CCC(=O)NC(=S)NNC(=O)c1ccc(NC(=O)c2ccccc2)cc1` the IC50 [1] was 3.81 µM (active), the IC50 [2] was 11.4 µM (active) and the IC50 (Bcl-2-related protein A1) was > 20 µM (inactive).
